A short description of one data set: in vitro. The following applies: human.
A further data set relates to lysosomes. The settings on record: cited from earlier work.
A further data set has as its system Ebola. The settings on record: cited from earlier work.
Data set [1] relates to pseudotyped WT-MARV. The experiment in a line: microbe, parasite or virus in culture. The settings on record: for IC50: Human immunodeficiency virus 1, A549, read-out: IC50 (µM) (MARV). In kind it is cell-based, Marburg virus.
Data set [2] has as its system pseudotyped WT-EBOV. The experiment in a line: microbe, parasite or virus in culture. It counts as cell-based, Ebola virus.
Another data set addresses EBOV GP. The following applies: cited from earlier work.
Data set [3] has as its system lysotracker red accumulation in lysosomes, A549 cells. The experiment in a line: cells. It counts as cell-based, Human. The settings on record: for IC50: Homo sapiens, A549, read-out: IC50, inhibition of lysotracker red accumulation in lysosomes.
In a further data set the target is EBOV HR2 peptide ([…]) (Zaire ebolavirus, UniProt Q05320). In kind it is binding, Ebola virus. The following applies: pH 5.2.
For data set [4], the system named is pseudotyped vesicular stomatitis virus (VSV). It counts as cell-based.
In data set [5] the test system is pseudotyped WT-MARV. The experiment in a line: organism not typed. The settings on record: read-out: MARV Inhibition (%). It counts as cell-based, Marburg virus.
Data set [6] concerns pseudotyped WT-EBOV. The experiment in a line: microbe, parasite or virus in culture. The settings on record: Zaire ebolavirus, read-out: EBOV Inhibition (%). In kind it is cell-based, Ebola virus.
Data set [7] deals with pseudotyped influenza H5N1. In kind it is cell-based.
The next data set has as its target RAVN GPΔmucin (Lake Victoria marburgvirus, UniProt Q1PDC7). The settings on record: 200 µM.
Where [8] appears, read: Zaire ebolavirus, A549, read-out: IC50 (µM) (EBOV).

Entries after “also recorded” stand apart in the source; their conditions may differ. Where two headings read alike, the source gives them in different places. A value given as a limit tells only on which side of the number the result lay.

As to `CN1[C@@H]2CC[C@H]1C[C@@H](OC(c1ccccc1)c1ccccc1)C2` [Benztropine], the CC50 in “in vitro” was 52.9 ± 6.1 µM.
Take `CC(C)NCC(O)COc1cccc2ccccc12` (stereo not drawn) [propranolol]: in the data set with lysosomes, the accumulation in lysosomes result is “accumulate in lysosomes”. Moreover, the “Ebola entry inhibition in screen of FDA approved drugs” value with Ebola is “not Ebola entry inhibitors”.
Turning to `Fc1ccc([C@@H]2CCNC[C@H]2COc2ccc3c(c2)OCO3)cc1` [Paroxetine], the IC50 (in general, the concentration that gives 50% inhibition) was found to be 3.1 ± 0.1 µM in the data set with pseudotyped WT-MARV [1] and 0.34 ± 0.05 µM with pseudotyped WT-EBOV [2] (setting [8]). In the data set “in vitro”, this compound registered a CC50 of 23.1 ± 6.3 µM. Also, the Kd (usually a measure of binding affinity in units of concentration) at EBOV GP was 650 µM.
In the case of `CCN(CC)CCCC(C)Nc1ccnc2cc(Cl)ccc12` (stereo not drawn) [chloroquine], in data set [3], the IC50 turned out to be 3.3 µM.
On to `CNCCC(Oc1ccc(C(F)(F)F)cc1)c1ccccc1` (stereo not drawn) [Fluoxetine], for which the “binding to EBOV HR2 peptide (NOESY)” value on EBOV HR2 peptide ([…]) is reported as “intermolecular NOEs, highlighted by red arrows, are observed”. Also, the CC50 in the data set “in vitro” was found to be 28.7 ± 0.1 µM. The “inhibition of pseudotyped vesicular stomatitis virus (VSV)” value in data set [4] is “no inhibition”. Moreover, in the data set with pseudotyped WT-MARV [5], the inhibition (as a rule, the relative decrease from the control value, in per cent) at 0.625 µM stood at 35.7%; the inhibition at 1.25 µM was 46.4%; the inhibition at 2.5 µM came out at 62%; the inhibition at 5 µM was 74.4%. The inhibition at 10 µM in the data set with pseudotyped WT-MARV [5] worked out at 88.8%. Further, in the data set with pseudotyped WT-EBOV [6], the inhibition at 0.625 µM worked out at 6.94%, the inhibition at 1.25 µM is 21.4%, the inhibition at 2.5 µM came to 44.8% and the inhibition at 5 µM is 55.7%. In the data set with pseudotyped WT-EBOV [6], the inhibition at 10 µM was determined as 79.2%. For the same compound, the “inhibition of pseudotyped influenza H5N1” value in data set [7] is “no inhibition”.
In the case of `CC(C)COCC(CN(Cc1ccccc1)c1ccccc1)N1CCCC1` (stereo not drawn) [Bepridil], the concentration for half-maximal inhibition (IC50) worked out at 10 ± 2 µM with pseudotyped WT-MARV [1] and 1.6 ± 0.8 µM with pseudotyped WT-EBOV [2] (setting [8]). Moreover, the CC50 in “in vitro” came out at 34.7 ± 4.6 µM. Moreover, the Kd on EBOV GP was 290 µM.
For `OCCOc1ccc(/C(=C(/CCCl)c2ccccc2)c2ccccc2)cc1` [Ospemifene], in the data set on pseudotyped WT-MARV [1], the “loss of potency for MARV” value worked out at 35 fold. The results for the half-inhibitory concentration (IC50) in the data set with pseudotyped WT-MARV [1] and in the data set with pseudotyped WT-EBOV [2] (setting [8]) were 35 ± 3 µM and 19 ± 10 µM, respectively. The CC50 in “in vitro” (CC50 (µM)) was found to be 56 µM; in the data set with A549 cells (human) it was 57 µM. For the same compound, the lysosome trapping entry in [3] is given as “no trapping at any concentration; also recorded: no effect”. Moreover, the “decrease in Tm of MARV (RAVN) GP” value at RAVN GPΔmucin was 2 °C.
With `CN(C)CCOc1ccc(/C(=C(/CCCl)c2ccccc2)c2ccccc2)cc1` [Toremifene], in the data set on pseudotyped WT-MARV [1], the “Toremifene at 10 µM (% Infection)” value was determined as 3% and the half-maximal inhibitory concentration (IC50) is 1.6 ± 0.6 µM. In addition, in the data set on pseudotyped WT-EBOV [2] (setting [8]), the half-maximal inhibitory concentration (IC50) was 0.021 ± 0.009 µM. The IC50 in the data set with pseudotyped WT-EBOV [2] (Zaire ebolavirus, A549, read-out: Toremifene IC50 (µM)) came to 0.01 µM. Also, in the data set “in vitro”, the CC50 was 26.9 ± 2.4 µM. Moreover, the IC50 in data set [3] came to 9.7 µM. The “inhibition of pseudotyped vesicular stomatitis virus (VSV)” value in data set [4] is reported as “no inhibition”. Further, in the data set on pseudotyped WT-MARV [5], the inhibition at 0.625 µM was -3.12%, the inhibition at 1.25 µM is -0.5%, the inhibition at 2.5 µM worked out at 23.1% and the inhibition at 5 µM was 71.2%. The inhibition at 10 µM with pseudotyped WT-MARV [5] came out at 99%. In addition, in the data set on pseudotyped WT-EBOV [6], the inhibition at 0.0312 µM is 5.93%, the inhibition at 0.0625 µM came to 21.8%, the inhibition at 0.125 µM stood at 41.2% and the inhibition at 0.25 µM worked out at 66.6%. Further, the inhibition at 0.5 µM with pseudotyped WT-EBOV [6] was found to be 88.5%. Moreover, the “decrease in Tm of MARV (RAVN) GP” value on RAVN GPΔmucin is ~ 5 °C.
On to `CCCCOc1cc(C(=O)NCCN(CC)CC)c2ccccc2n1` [Dibucaine], for which the IC50 in the data set on pseudotyped WT-MARV [1] came to 6 ± 2 µM; in the data set on pseudotyped WT-EBOV [2] (setting [8]) it was 3.2 ± 0.2 µM. In the data set “in vitro”, this compound had a CC50 of 67.1 ± 8 µM.
With CA-074, the half-inhibitory concentration (IC50) with pseudotyped WT-EBOV [2] (read-out: IC50 (µM) (EBOV)) was found to be 32 ± 8 µM. Moreover, the CC50 in the data set with A549 cells is above 100 µM.
In the case of `CNCCCN1c2ccccc2CCc2ccccc21` [desipramine], the accumulation in lysosomes entry in the data set on lysosomes is on record as “accumulate in lysosomes”. The “Ebola entry inhibition in screen of FDA approved drugs” value in the data set with Ebola was “not Ebola entry inhibitors”.
Take `CN(C)CCCN1c2ccccc2CCc2ccccc21` [Imipramine]: the half-maximal inhibitory concentration (IC50) in the data set on pseudotyped WT-MARV [1] turned out to be 6.4 ± 0.6 µM; in the data set with pseudotyped WT-EBOV [2] (setting [8]), 2.6 ± 0.1 µM. This compound yielded a CC50 in “in vitro” of 76.3 ± 7.4 µM. Besides, the Kd at EBOV GP was 584 µM.
As to `CC(=O)N[C@@H](CC(C)C)C(=O)N[C@@H](CC(C)C)C(=O)N[C@H](C=O)CCCNC(=N)N` [Leupeptin], the IC50 in the data set on pseudotyped WT-MARV [1] is 0.6 ± 0.1 µM; in the data set with pseudotyped WT-EBOV [2] (setting [8]), 0.35 ± 0.07 µM. Besides, the CC50 in the data set “in vitro” is above 100 µM.
In “in vitro”, `CN[C@H]1CC[C@@H](c2ccc(Cl)c(Cl)c2)c2ccccc21` [Sertraline] displayed a CC50 of 22.6 ± 6.2 µM.
